# Laboratory results published in PubChem BioAssay AID328 (DTP/NCI, 2004).
# Several values for one entry are separate records, joined by “and”; a condition that tells them apart may be missing. Equal entries are not always repeated. Inconclusive results and toxic doses are left out.
# Tested on: BDF1 mice, P388 leukemia ip, median survival T/C
# Assay: NCI In Vivo Anticancer Drug Screen. Data for tumor model P388 Leukemia (intraperitoneal) in B6D2F1 (BDF1) mice
# Details: endpoint: median survival time, higher = longer survival
# Summary of the method: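 Each value expresses how treatment altered survival: treated-mouse outcome over vehicle-mouse outcome, both groups bearing the transplanted tumour.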
# [1] = dose: 25.0 mg/kg/injection, schedule: Q01DX009 (ip), vehicle: Klucel (hydroxypropylcellulose) (HPC)
# [2] = dose: 50.0 mg/kg/injection, schedule: Q01DX009 (ip), vehicle: Klucel (hydroxypropylcellulose) (HPC)
# [3] = dose: 50.0 mg/kg/injection, schedule: Q01DX009 (ip), vehicle: saline with Tween-80
# [4] = dose: 100.0 mg/kg/injection, schedule: Q01DX009 (ip), vehicle: saline with Tween-80
# [5] = dose: 100.0 mg/kg/injection, schedule: Q04DX003 (ip), vehicle: saline with Tween-80
# [6] = dose: 200.0 mg/kg/injection, schedule: Q01DX009 (ip), vehicle: saline with Tween-80
# [7] = dose: 200.0 mg/kg/injection, schedule: Q04DX003 (ip), vehicle: saline with Tween-80
# [8] = dose: 100.0 mg/kg/injection, schedule: Q01DX001 (ip), vehicle: saline with Tween-80
# [9] = dose: 100.0 mg/kg/injection, schedule: Q01DX009 (ip), vehicle: Klucel (hydroxypropylcellulose) (HPC)
# [10] = dose: 200.0 mg/kg/injection, schedule: Q01DX001 (ip), vehicle: saline with Tween-80
# [11] = dose: 400.0 mg/kg/injection, schedule: Q01DX001 (ip), vehicle: saline with Tween-80
compound,measurement,setting,value
O=C(O)c1c(-c2ccccc2)[nH]c2cc(Cl)ccc2c1=O,T/C,"dose: 6.25 mg/kg/injection, schedule: Q01DX009 (ip), vehicle: Klucel (hydroxypropylcellulose) (HPC)",95 % of control
same,T/C,"dose: 12.5 mg/kg/injection, schedule: Q01DX009 (ip), vehicle: Klucel (hydroxypropylcellulose) (HPC)",90 % of control and 109 % of control
same,T/C,[1],100 % of control
same,T/C,[2],95 % of control
same,T/C,[3],114 % of control
same,T/C,"dose: 50.0 mg/kg/injection, schedule: Q04DX003 (ip), vehicle: saline with Tween-80",122 % of control
same,T/C,"dose: 90.0 mg/kg/injection, schedule: Q04DX003 (ip), vehicle: saline with Tween-80",109 % of control
same,T/C,[4],118 % of control
same,T/C,[5],113 % of control
same,T/C,"dose: 133.0 mg/kg/injection, schedule: Q04DX003 (ip), vehicle: saline with Tween-80",112 % of control and 113 % of control
same,T/C,[6],100 % of control
same,T/C,[7],108 % of control and 109 % of control
same,T/C,"dose: 300.0 mg/kg/injection, schedule: Q04DX003 (ip), vehicle: saline with Tween-80",104 % of control
C1CN(CC2COC(CN3CCOCC3)CO2)CCO1 (stereo unspecified),T/C,"dose: 100.0 mg/kg/injection, schedule: Q04DX003 (ip), vehicle: saline",114 % of control
same,T/C,"dose: 200.0 mg/kg/injection, schedule: Q04DX003 (ip), vehicle: saline",104 % of control
same,T/C,"dose: 400.0 mg/kg/injection, schedule: Q04DX003 (ip), vehicle: saline",104 % of control
CCOP(=O)(C/C(=N\Nc1ccc([N+](=O)[O-])cc1[N+](=O)[O-])c1ccccc1)c1ccccc1 (stereo unspecified),T/C,"dose: 25.0 mg/kg/injection, schedule: Q01DX001 (ip), vehicle: saline with Tween-80",100 % of control
same,T/C,"dose: 50.0 mg/kg/injection, schedule: Q01DX001 (ip), vehicle: saline with Tween-80",104 % of control
same,T/C,[8],95 % of control
CN1CCN(CCNc2ccc(CO)c3sc4ccccc4c(=O)c23)CC1,T/C,[1],120 % of control
same,T/C,[2],109 % of control
same,T/C,[9],151 % of control
CC(=O)[C@H]1CC[C@H]2[C@@H]3CC[C@@H]4C[C@@H](O)CC[C@]4(C)[C@H]3CC[C@]12C,T/C,"dose: 163.0 mg/kg/injection, schedule: Q01DX009 (ip), vehicle: saline with Tween-80",109 % of control
same,T/C,"dose: 325.0 mg/kg/injection, schedule: Q01DX009 (ip), vehicle: saline with Tween-80",100 % of control
CCn1cnc2c(=S)nc[nH]c21,T/C,"dose: 15.6 mg/kg/injection, schedule: Q01DX010 (ip), vehicle: saline",100 % of control and 115 % of control
same,T/C,"dose: 31.3 mg/kg/injection, schedule: Q01DX010 (ip), vehicle: saline",90 % of control and 105 % of control
same,T/C,"dose: 62.5 mg/kg/injection, schedule: Q01DX010 (ip), vehicle: saline",104 % of control and 115 % of control
CNNC(=O)NC,T/C,"dose: 2.06 mg/kg/injection, schedule: Q01DX009 (ip), vehicle: saline",108 % of control
same,T/C,"dose: 4.12 mg/kg/injection, schedule: Q01DX009 (ip), vehicle: saline",116 % of control
same,T/C,"dose: 8.25 mg/kg/injection, schedule: Q01DX009 (ip), vehicle: saline",91 % of control
same,T/C,"dose: 35.0 mg/kg/injection, schedule: Q04DX003 (ip), vehicle: saline",109 % of control
same,T/C,"dose: 55.0 mg/kg/injection, schedule: Q04DX003 (ip), vehicle: saline",113 % of control
same,T/C,"dose: 80.0 mg/kg/injection, schedule: Q04DX003 (ip), vehicle: saline",118 % of control
same,T/C,"dose: 120.0 mg/kg/injection, schedule: Q04DX003 (ip), vehicle: saline",109 % of control
same,T/C,"dose: 180.0 mg/kg/injection, schedule: Q04DX003 (ip), vehicle: saline",113 % of control
same,T/C,"dose: 270.0 mg/kg/injection, schedule: Q04DX003 (ip), vehicle: saline",109 % of control
CC(=O)Oc1cc2c(cc1OC(C)=O)C(=O)CCC=C2,T/C,"dose: 12.5 mg/kg/injection, schedule: Q01DX009 (ip), vehicle: saline with Tween-80",114 % of control
same,T/C,"dose: 25.0 mg/kg/injection, schedule: Q01DX009 (ip), vehicle: saline with Tween-80",109 % of control
same,T/C,[3],104 % of control
CCN(CC)CC(C)=C(B1OC(C)(C)C(C)(C)O1)B1OC(C)(C)C(C)(C)O1,T/C,"dose: 50.0 mg/kg/injection, schedule: Q01DX001 (ip), vehicle: saline",110 % of control
same,T/C,"dose: 100.0 mg/kg/injection, schedule: Q01DX001 (ip), vehicle: saline",105 % of control
same,T/C,"dose: 200.0 mg/kg/injection, schedule: Q01DX001 (ip), vehicle: saline",100 % of control
CC(=O)NC(Cc1ccc(F)cc1)C(=O)O (stereo unspecified),T/C,[6],121 % of control
NC(=S)N=Nc1c(O)[nH]c2ccccc12,T/C,[2],119 % of control
same,T/C,[9],118 % of control
same,T/C,"dose: 200.0 mg/kg/injection, schedule: Q01DX009 (ip), vehicle: Klucel (hydroxypropylcellulose) (HPC)",115 % of control
Cc1ccc(N2CCNCC2)cc1,T/C,"dose: 6.25 mg/kg/injection, schedule: Q04DX003 (ip), vehicle: saline sonified",95 % of control
same,T/C,"dose: 12.5 mg/kg/injection, schedule: Q04DX003 (ip), vehicle: saline sonified",100 % of control
same,T/C,"dose: 25.0 mg/kg/injection, schedule: Q04DX003 (ip), vehicle: saline sonified",100 % of control
Cc1oc(-c2ccccc2)nc1C(C)(O)c1ccccc1 (stereo unspecified),T/C,"dose: 100.0 mg/kg/injection, schedule: Q04DX002 (ip), vehicle: saline with Tween-80",118 % of control
same,T/C,"dose: 200.0 mg/kg/injection, schedule: Q04DX002 (ip), vehicle: saline with Tween-80",103 % of control
same,T/C,"dose: 400.0 mg/kg/injection, schedule: Q04DX002 (ip), vehicle: saline with Tween-80",112 % of control
NNC(=S)SCc1ccccc1,T/C,"dose: 15.0 mg/kg/injection, schedule: Q01DX009 (ip), vehicle: saline with Tween-80",106 % of control
same,T/C,"dose: 30.0 mg/kg/injection, schedule: Q01DX009 (ip), vehicle: saline with Tween-80",98 % of control
CCc1c(Cl)c(C)cc(O)c1Cl,T/C,"dose: 18.0 mg/kg/injection, schedule: Q01DX009 (ip), vehicle: gum acacia",112 % of control
same,T/C,"dose: 25.0 mg/kg/injection, schedule: Q01DX009 (ip), vehicle: gum acacia",112 % of control
same,T/C,"dose: 25.0 mg/kg/injection, schedule: Q04DX003 (ip), vehicle: gum acacia",88 % of control
same,T/C,"dose: 50.0 mg/kg/injection, schedule: Q01DX009 (ip), vehicle: gum acacia",100 % of control
same,T/C,"dose: 50.0 mg/kg/injection, schedule: Q04DX003 (ip), vehicle: gum acacia",92 % of control
same,T/C,"dose: 100.0 mg/kg/injection, schedule: Q04DX003 (ip), vehicle: gum acacia",96 % of control
Cn1cnc([N+](=O)[O-])c1Sc1nc(N)nc2nc[nH]c12,T/C,"dose: 7.0 mg/kg/injection, schedule: Q01DX009 (ip), vehicle: saline with Tween-80",190 % of control
same,T/C,"dose: 11.0 mg/kg/injection, schedule: Q01DX009 (ip), vehicle: saline with Tween-80",190 % of control
same,T/C,"dose: 16.5 mg/kg/injection, schedule: Q01DX009 (ip), vehicle: saline with Tween-80",96 % of control
O=C(O)C1CCCN1C(=O)CCS (stereo unspecified),T/C,"dose: 50.0 mg/kg/injection, schedule: Q01DX009 (ip), vehicle: saline",90 % of control
same,T/C,"dose: 100.0 mg/kg/injection, schedule: Q01DX009 (ip), vehicle: saline",90 % of control
same,T/C,"dose: 200.0 mg/kg/injection, schedule: Q01DX009 (ip), vehicle: saline",97 % of control
Cc1c(O)ccc2c1CCCC2,T/C,"dose: 50.0 mg/kg/injection, schedule: Q01DX001 (ip), vehicle: saline sonified",90 % of control
same,T/C,"dose: 100.0 mg/kg/injection, schedule: Q01DX001 (ip), vehicle: saline sonified",104 % of control
same,T/C,"dose: 200.0 mg/kg/injection, schedule: Q01DX001 (ip), vehicle: saline sonified",100 % of control
O=c1[nH]ccn2cnnc12,T/C,[8],95 % of control
same,T/C,[10],95 % of control
same,T/C,[11],104 % of control
CCCCOCN(COCCCC)c1cccc([N+](=O)[O-])c1,T/C,[3],102 % of control
same,T/C,[4],100 % of control
same,T/C,[6],111 % of control
COP(=O)(OC)C(OC(=O)C(C)(C)SC(C)=S)=C(C)C,T/C,[5],110 % of control
same,T/C,[7],115 % of control
same,T/C,"dose: 400.0 mg/kg/injection, schedule: Q04DX003 (ip), vehicle: saline with Tween-80",115 % of control
CC(=O)Oc1c(Cl)c(Cl)c(C#N)c(Cl)c1C#N,T/C,[3],111 % of control
same,T/C,[4],122 % of control
N#Cc1cccc(CC(O)(c2ccccc2)c2ccccc2)c1,T/C,[3],89 % of control
same,T/C,[4],87 % of control
same,T/C,[6],95 % of control
O=C1N/C(=N\O)S/C1=C/c1ccc2c(c1)OCO2,T/C,[8],89 % of control
same,T/C,[10],95 % of control
same,T/C,[11],105 % of control
